Columns and labels:
[1] = tested on: SARS-COV-2 Omicron BA.1 variant (B.1.1.529); parameters: species or system BALB/c mice; settings: mouse, in vivo
[2] = tested on: SARS-COV-2 Delta variant (B.1.617.2); parameters: species or system Syrian hamsters; settings: hamster, in vivo

CCCCCCCCCCCCCC[C@@H](O)[C@@H](O)[C@H](CO[C@H]1O[C@H](CO)[C@H](O)[C@H](O)[C@H]1O)NC(=O)CCCCCCCCCCc1ccc(F)cc1 [7DW8-5]
body weight [1]: significant weight gain | virus replication in lung tissues [1]: complete inhibition | viral load in lung tissues [2]: significantly decreased | viral load in nasal tissues [2]: significantly decreased

From patent US20250367225A1 (priority 2022, published 2025)
